Counter-ions that a name gives are not always drawn. Where only a bound is given, the exact number is not on record here.

One series deals with KM-Luc/GFP cells. The series is described as follows: Anticancer activity after administration into the accessory axillary lymph node, mouse model of proper axillary lymph node metastasis (KM-Luc/GFP), luciferase imaging. The format is in vivo. Particulars: for Luciferase activity ratio calculated by Expression 3: 0 μg/g set to 100. Details: key to Luciferase activity ratio calculated by Expression 3: day9/day6 normalized luciferase ratio, 0 μg/g set to 100. As for the experimental part:
As a mouse model of lymphadenopathy, MXH10/Mo/lpr/lpr (MXH10/Mo/lpr) mice were prepared in accordance with the method previously reported (J Immunol Methods 2013; 389 (1-2): 69-78 doi 10.1016/j.jim.2013.01.004). In the following Examples, in total, 5 male and female model mice aged 15 to 18 weeks were used.
Mouse fibroblast-derived KM-Luc/GFP cells were prepared in accordance with the method previously reported (PLoS One 2013; 8 (2): e55797 doi 10.1371/journal.pone.0055797). The KM-Luc/GFP cells were obtained by transfecting MRL/MpTn-gld/gld mouse fibroblast-derived cancer cells, MRL/N1 cells, with pEGFPLuc plasmid. The KM-Luc/GFP cells constantly express a luciferase gene and a green fluorescent gene. In the following Examples, the cells were cultured in Dulbecco's modified Eagle's medium (manufactured by Sigma-Aldrich) containing 10% FBS (fetal bovine serum), 1% L-Glutamine-P.S. solution (manufactured by Thermo Fisher Scientific) and 0.5% G418 and put in use.
(§1) KM-Luc/GFP (cancer) cells, which were prepared by thawing the cells stored at −80° C. and thereafter sub-culturing them twice in total, were suspended in PBS (phosphate buffered saline) and the concentration thereof was controlled to be 1.0×10^6 cells/mL. Thereafter, the cell suspension was mixed with Matrigel (basement membrane matrix, manufactured by Becton, Dickinson and Co.) and diluted to a concentration of 3.3×10^5 cells/mL, and then, the resultant (60 μL) was inoculated into mouse subiliac lymph node (FIG. 1). The day when the cancer cells were inoculated was specified as day 0.
Using a biological fluorescence imaging system (IVIS manufactured by Caliper Life Science), the growth rates of cancer cells in the subiliac lymph node and proper axillary lymph node were determined on day 0, day 6 and day 9 after inoculation of the cancer cells. 200 μL of luciferin (manufactured by Promega), the concentration of which was controlled to be 15 mg/mL, was injected into the abdominal cavity of the mouse. Ten minutes later, luciferase activity was determined using the IVIS.
Of the mice on day 6 after cancer cell inoculation, mice having a luciferase activity of 1.0×10^6 photons/sec or more in the proper axillary lymph node were selected, and 120 μL of 5-FU was administered to the accessory axillary lymph node at a rate of 10 μL/min by use of a syringe pump (KDS100, manufactured by Muromachi) (FIG. 1).
The luciferase activities on day 6 and day 9 were normalized in accordance with the following [Expression 1]. Thereafter, the ratio of the normalized luciferase activity on day 9 to that on day 6 was calculated in accordance with the following [Expression 2]. The ratio of the normalized luciferase activity on day 9 to that on day 6 at each administration concentration of 5-FU, when the ratio of the normalized luciferase activity on day 9 to that on day 6 at administration of 0 μg/g was set to 100, was calculated in accordance with the following [Expression 3]. Normalized luciferase activity on day 6 or day 9=((luciferase activity on day 6 or day 9)/(luciferase activity on day 0)) [Expression 1] Ratio of normalized luciferase activity on day 9 to that on day 6=((normalized luciferase activity on day 9)/(normalized luciferase activity on day 6)) [Expression 2] Ratio of normalized luciferase activity on day 9 to that on day 6 at each administration concentration of 5-FU, when the ratio of normalized luciferase activity on day 9 to that on day 6 at administration of 0 μg/g was set to 100,=((ratio of normalized luciferase activity on day 9 to that on day 6 at each administration concentration of 5-FU)/(ratio of normalized luciferase activity on day 9 to that on day 6 at administration of 0 μg/g)×100) [Expression 3] 3. Results […]
The same method as in Example 1 was employed except that the test drug to be administered to the accessary axillary lymph node was changed to doxorubicin.

The test system of series [1] is cancer-containing proper axillary lymph node (PALN). Particulars: administration through the subiliac lymph node (SiLN); cited from earlier work.
For a further series, the system named is cancer cell strain. To be noted: cited from earlier work.
Another series deals with FM3A-Luc cells. The series is described as follows: Anticancer activity of docetaxel administered into a lymph node, mouse model of proper axillary lymph node metastasis (FM3A-Luc), luciferase imaging. Particulars: for Luciferase activity ratio calculated by Expression 6 (day 6^T): day 6^T to day −1^T. In kind it is in vivo. The procedure: Mouse breast cancer cell-derived FM3A-Luc cells were prepared in accordance with the method previously reported (J Immunol Methods 2013 Mar 29; 389 (1-2): 69-78. doi: 10.1016/j.jim.2013.01.004.). The FM3A-Luc cells were obtained by gene-introduction of pGL4.51 into FM3A cells by means of electroporation and constantly express a luciferase gene. In the following Examples, the cells were cultured in RPMI-1640 (manufactured by Sigma-Aldrich) containing 10% FBS (fetal bovine serum), 1% of an L-Glutamine-P.S. solution (manufactured by Theimo Fisher Scientific) and 0.5% of G418 and put in use.
As docetaxel, taxotere for intravenous infusion, 80 mg (manufactured by Sanofi K. K.) was used. Taxotere for intravenous infusion 80 mg (2 mL) was dissolved in 13% ethanol (6 mL) to prepare a 10 mg/mL stock solution. Thereafter, the stock solution was dissolved with sterile water in such a way that the concentration per mouse body-weight became 0 μg/g, 1 μg/g and 10 μg/g.
as §1, with “FM3A-Luc (cancer) cells,” for “KM-Luc/GFP (cancer) cells,”, “thawing the cancer cells stored” for “thawing the cells stored”, “were suspended with PBS (phosphate” for “were suspended in PBS (phosphate”, “and diluted up to a” for “and diluted to a”
Using a biological fluorescence imaging system (IVIS manufactured by Caliper Life Science), the growth rates of cancer cells in the subiliac lymph node and proper axillary lymph node were determined on day 0, day 7, day 14, day 17, day 20, day 23, day 26 and day 29 after inoculation of the cancer cells. 200 μL of luciferin (manufactured by Promega), the concentration of which was controlled to be 15 mg/mL, was injected into the abdominal cavity of the mouse. Ten minutes later, luciferase activity was determined using the IVIS.
To a mouse confirmed to have a luciferase activity of 1.0×10^6 photons/sec or more in the proper axillary lymph node, docetaxel (120 μL) was administered to the accessory axillary lymph node on the day following confirmation at a rate of 10 μL/min by use of a syringe pump (KDS100, manufactured by Muromachi) (FIG. 1).
The day when docetaxel was administered was defined as day 0^T. The luciferase activity on day 3^T (3 days after administration of docetaxel) and the luciferase activity on day 6^T (6 days after administration of docetaxel) were normalized in accordance with the following [Expression 4]. Thereafter, the ratio of the normalized luciferase activity on day 3^T or day 6^T to that on day −1^T (the day when the luciferase activity in the proper axillary lymph node was confirmed to be 1.0×10^6 photons/sec or more and the day before docetaxel administration) was calculated in accordance with the following [Expression 5]. The ratio of the normalized luciferase activity on day 3^T or day 6^T to that on day −1^T at each administration concentration of docetaxel, when the ratio of the normalized luciferase activity on day 3^T or day 6^T to that on day −1^T at administration of 0 μg/g was set to 100, was calculated in accordance with the following [Expression 6]. […]

Where [2] appears, read: 0.1 μg/g into accessory axillary lymph node, day 9 to day 6 ratio in proper axillary lymph node.
Where [3] appears, read: 1 μg/g into accessory axillary lymph node, day 9 to day 6 ratio.
Where [4] appears, read: 10 μg/g into accessory axillary lymph node, day 9 to day 6 ratio.

For `O=c1[nH]cc(F)c(=O)[nH]1` [5-FU, 5-fluorouracil], the entries for the “Luciferase activity ratio calculated by Expression 3” value with KM-Luc/GFP cells (setting [2]), in the series with KM-Luc/GFP cells (setting [3]) and in the series on KM-Luc/GFP cells (setting [4]) were 9.27, 9.12 and 1.49, respectively. Besides, in the series with KM-Luc/GFP cells (dose 0.1 μg/g), the tumor regression effect was no less than 90%.
Consider `COc1cccc2c1C(=O)c1c(O)c3c(c(O)c1C2=O)C[C@@](O)(C(=O)CO)C[C@@H]3O[C@H]1C[C@H](N)[C@H](O)[C@H](C)O1` [Doxorubicin, doxorubicin hydrochloride], for which the “anticancer effect in the proper axillary lymph node” value in series [1] is “resulted in an anticancer effect”. The “Luciferase activity ratio calculated by Expression 3” value in the series on KM-Luc/GFP cells (setting [2]) is recorded as 40.9; with KM-Luc/GFP cells (setting [3]) it was 43.2; in the series on KM-Luc/GFP cells (setting [4]), 75.0. The “best tumor reduction ratio” value in the series with KM-Luc/GFP cells (dose 1 μg/g) was “less than 60%”. In addition, the tumor reduction ratio entry in the series on KM-Luc/GFP cells (dose 10 μg/g) was “about 25%”. In the series on cancer cell strain, the “cell growth inhibitory activity (GI50 value) of doxorubicin, times as high as those of 5-FU and CPT-11” value is 10 to 1,000 times.
On to `CCc1c2c(nc3ccc(OC(=O)N4CCC(N5CCCCC5)CC4)cc13)-c1cc3c(c(=O)n1C2)COC(=O)[C@]3(O)CC` [CPT-11, irinotecan hydrochloride], for which the “Luciferase activity ratio calculated by Expression 3” value was 6.06 in the series with KM-Luc/GFP cells (0.5 μg/g into accessory axillary lymph node, day 9 to day 6 ratio) and 3.03 in the series with KM-Luc/GFP cells (5 μg/g into accessory axillary lymph node, day 9 to day 6 ratio). For the same molecule, the tumor regression effect in the series on KM-Luc/GFP cells (dose 0.5 μg/g) is no less than 90%.
Turning to `CC(=O)O[C@@]12CO[C@@H]1C[C@H](O)[C@@]1(C)C(=O)[C@H](O)C3=C(C)[C@@H](OC(=O)[C@H](O)[C@@H](NC(=O)OC(C)(C)C)c4ccccc4)C[C@@](O)([C@@H](OC(=O)c4ccccc4)[C@H]21)C3(C)C` [Docetaxel, docetaxel], in the series with cancer cell strain, the “cell growth inhibitory activity of docetaxel compared with doxorubicin” value is on record as “almost equal to that of doxorubicin”. The “Luciferase activity ratio calculated by Expression 6 (day 6^T)” value in the series with FM3A-Luc cells (1 μg/g into accessory axillary lymph node, 0 μg/g set to 100) is listed as 7.5; in the series on FM3A-Luc cells (10 μg/g into accessory axillary lymph node, 0 μg/g set to 100), 1.7. Moreover, the “Luciferase activity ratio calculated by Expression 6 (day 3^T)” value in the series with FM3A-Luc cells (10 μg/g into accessory axillary lymph node, day 3^T to day −1^T, 0 μg/g set to 100) is recorded as 16.2. In the series with FM3A-Luc cells (dose 1 μg/g, day 6 after initiation of treatment), this molecule gave a tumor regression effect of no less than 90%. In addition, the tumor reduction ratio with FM3A-Luc cells (dose 10 μg/g) is given as no less than 80%.
